≈ marks a conversion by molar mass, not a printed value.
Assays:
Assay type in all cases: functional
[1] = system: Mycobacterium tuberculosis; assay: Antimycobacterial activity against INH-resistant Mycobacterium tuberculosis after 2 to 3 weeks by turbidity assay
[2] = system: Mycobacterium tuberculosis; assay: Antimycobacterial activity against streptomycin-resistant Mycobacterium tuberculosis after 2 to 3 weeks by turbidity assay
[3] = system: Mycobacterium tuberculosis; assay: Antimycobacterial activity against rifampicin-resistant Mycobacterium tuberculosis after 2 to 3 weeks by turbidity assay

O=C(NCc1ccccn1)c1sc2c([N+](=O)[O-])cc(C(F)(F)F)cc2[n+]1[O-]
MIC [1]: 0.06 µg/mL (≈ 0.151 µM)
MIC [2]: 0.06 µg/mL (≈ 0.151 µM)
MIC [3]: 0.03 µg/mL (≈ 0.0753 µM)

COCCN1CCN(C(=O)c2nc3cc(C(F)(F)F)c(C)c([N+](=O)[O-])c3s2)CC1
MIC [1]: 1 µg/mL (≈ 2.31 µM)
MIC [2]: 1 µg/mL (≈ 2.31 µM)
MIC [3]: 1 µg/mL (≈ 2.31 µM)

O=C(NCc1ccccn1)c1nc2cc(C(F)(F)F)cc([N+](=O)[O-])c2s1
MIC [1]: 0.12 µg/mL (≈ 0.314 µM)
MIC [2]: 0.25 µg/mL (≈ 0.654 µM)
MIC [3]: 0.25 µg/mL (≈ 0.654 µM)

Cc1c(C(F)(F)F)cc2nc(C(=O)N3CCCCC3)sc2c1[N+](=O)[O-]
MIC [1]: 0.25 µg/mL (≈ 0.67 µM)
MIC [2]: 0.25 µg/mL (≈ 0.67 µM)
MIC [3]: 0.5 µg/mL (≈ 1.34 µM)
